Assay results reported in US6376497B1, “Antifungal azole derivatives having a fluorinated vinyl group and process for preparing same” (Korea Research Institute of Chemical Technology, priority 1999, dated 2002).

Tests used:
Assay in all cases: In vitro antifungal activity, microbroth dilution MIC
Type in all cases: cell-based
Candida albicans C1-2 = conditions: 4 to 48 hours; for Minimal inhibitory concentration (MIC): C. albicans C1-2, RPMI-1640, 35° C.; for Minimal inhibitory concentration(MIC), C. albicans C1-2: RPMI-1640, 35° C., no growth observed
Procedure: (§1) In vitro antifungal activities of the inventive antifungal compounds were evaluated using the test strains shown in Table VIII by the following microbroth dilution method which is a modified version of the procedure recommended by National Committee for Clinical Laboratory Standards(see National Committee for Clinical Laboratory Standards, 1992, Reference methods for broth dilution antifungal susceptibility testing of yeasts, Proposed standard M27-P, National Committee for clinical laboratory standards, Villanova, Pa; and National Committee for Clinical Laboratory Standards, 1995, Reference methods for broth dilution antifungal susceptibility testing of yeasts. Tentative standard M27-T, National Committee for clinical laboratory standards, Villanova, Pa).
(§2) Sabourad Dextrose Agar(Difco) was used as a culture medium, and RPMI-1640 broth(Sigma. Co. w/L-glutamine, wo/NaHCO3)(0.165 M MOPS, pH 7.0), as a dilution medium.
(§3) Each of the test strains were subcultured in Sabourad Dextrose Agar medium twice and a stain sample was taken from prominent colonies and suspended in sterile physiological saline solution in a cap tube. The turbidity of the suspension was adjusted to that of the Mcfarland 0.5 standard sample(approximately 10^6 CFU/ml). Then the suspension was diluted 500-fold with sterile RPMI-1640 liquid medium to 2×10^3 CFU/ml.
(§4) Each of the test compounds(the compounds obtained in Examples 1 to 150 and comparative compounds, i.e., fluconazole(FCZ) and itraconazole (ICZ)), was dissolved in DMSO to give a stock solution having a concentration of 4000 μg/ml and the stock solution was successively diluted to obtain test solutions having test compound concentrations of 200, 100, 50, 25, 12.5, 6.25, 3.13, 1.56, 0.78, 0.39, 0.20 and 0.10 μg/ml, respectively.
(§5) 0.1 ml portion of the test solutions were added to the wells of a sterile 96 well plate. Then, 0.1 ml portion of each of the test strain solutions were added successively to the wells and the plate was incubated at 35° C. for 4 to 48 hours.
(§6) Minimal inhibitory concentration(MIC) of each compound was defined as the concentration of the test compound where no growth of the strain could be observed.

[1] = tested on: Torulopsis glabrata B. 16205; conditions: 4 to 48 hours; for Minimal inhibitory concentration (MIC): T. glabrata B. 16205, RPMI-1640, 35° C.; for Minimal inhibitory concentration(MIC), T. glabrata B. 16205: RPMI-1640, 35° C., no growth observed
Procedure: as §1, §2, §3, §4, §5, §6

[2] = tested on: Cryptococcus neoformans B. 42419; conditions: 4 to 48 hours; for Minimal inhibitory concentration (MIC): Cry. neoformans B. 42419, RPMI-1640, 35° C.; for Minimal inhibitory concentration(MIC), Cry. neoformans B. 42419: RPMI-1640, 35° C., no growth observed
Procedure: as §1, §2, §3, §4, §5, §6

[3] = tested on: Candida albicans A. 10231; conditions: 4 to 48 hours; for Minimal inhibitory concentration (MIC): C. albicans A. 10231, RPMI-1640, 35° C.
Procedure: as §1, §2, §3, §4, §5, §6

[4] = tested on: Cryptococcus neoformans A. 34144; conditions: 4 to 48 hours; for Minimal inhibitory concentration (MIC): Cry. neoformans A. 34144, RPMI-1640, 35° C.; for Minimal inhibitory concentration(MIC), Cry. neoformans A. 34144: RPMI-1640, 35° C., no growth observed
Procedure: as §1, §2, §3, §4, §5, §6

[5] = tested on: Candida parapsitosis A. 7330; conditions: 4 to 48 hours; for Minimal inhibitory concentration (MIC): C. parapsitosis A. 7330, RPMI-1640, 35° C.; for Minimal inhibitory concentration(MIC), C. parapsitosis A. 7330: RPMI-1640, 35° C., no growth observed
Procedure: as §1, §2, §3, §4, §5, §6

[6] = tested on: Aspergillus furnigatus B. 19119; conditions: 4 to 48 hours; for Minimal inhibitory concentration (MIC): A furnigatus B. 19119, RPMI-1640, 35° C.; for Minimal inhibitory concentration(MIC), A furnigatus B. 19119: RPMI-1640, 35° C., no growth observed
Procedure: as §1, §2, §3, §4, §5, §6

Candida krusei K. 11655 = conditions: 4 to 48 hours; for Minimal inhibitory concentration (MIC): C. krusei K. 11655, RPMI-1640, 35° C.; for Minimal inhibitory concentration(MIC), C. krusei K. 11655: RPMI-1640, 35° C., no growth observed
Procedure: as §1, §2, §3, §4, §5, §6

[7] = tested on: Candida tropicalis A. 13803; conditions: 4 to 48 hours; for Minimal inhibitory concentration (MIC): C. tropicalis A. 13803, RPMI-1640, 35° C.; for Minimal inhibitory concentration(MIC), C. tropicalis A. 13803: RPMI-1640, 35° C., no growth observed
Procedure: as §1, §2, §3, §4, §5, §6

[8] = tested on: Trichophyton mentagrophytes B. 32663; conditions: 4 to 48 hours; for Minimal inhibitory concentration (MIC): T. mentagrophytes B. 32663, RPMI-1640, 35° C.; for Minimal inhibitory concentration(MIC), T. mentagrophytes B. 32663: RPMI-1640, 35° C., no growth observed
Procedure: as §1, §2, §3, §4, §5, §6

[9] = tested on: Candida pseudotropicalis K. 11658; conditions: 4 to 48 hours; for Minimal inhibitory concentration (MIC): C. pseudotropicalis K. 11658, RPMI-1640, 35° C.; for Minimal inhibitory concentration(MIC), C. pseudotropicalis K. 11658: RPMI-1640, 35° C., no growth observed
Procedure: as §1, §2, §3, §4, §5, §6

[10] = tested on: Trichophyton mentagrophytes A. 9129; conditions: 4 to 48 hours; for Minimal inhibitory concentration (MIC): T. mentagrophytes A. 9129, RPMI-1640, 35° C.; for Minimal inhibitory concentration(MIC), T. mentagrophytes A. 9129: RPMI-1640, 35° C., no growth observed
Procedure: as §1, §2, §3, §4, §5, §6

[11] = tested on: Aspergillus niger A. 16404; conditions: 4 to 48 hours; for Minimal inhibitory concentration (MIC): A. niger A. 16404, RPMI-1640, 35° C.; for Minimal inhibitory concentration(MIC), A. niger A. 16404: RPMI-1640, 35° C., no growth observed
Procedure: as §1, §2, §3, §4, §5, §6

[12] = tested on: Candida albicans IFO. 1385; conditions: 4 to 48 hours; for Minimal inhibitory concentration (MIC): C. albicans IFO. 1385, RPMI-1640, 35° C.; for Minimal inhibitory concentration(MIC), C. albicans IFO. 1385: RPMI-1640, 35° C., no growth observed
Procedure: as §1, §2, §3, §4, §5, §6

[13] = tested on: Cryptococcus neoformans IFM. 40092; conditions: 4 to 48 hours; for Minimal inhibitory concentration (MIC): Cry. neoformans IFM. 40092, RPMI-1640, 35° C.
Procedure: as §1, §2, §3, §4, §5, §6

[14] = RPMI-1640, 35° C., no growth observed

Row | Structure (SMILES) | Minimal inhibitory concentration (MIC) (Candida albicans C1-2) [µg/mL] | Minimal inhibitory concentration (MIC) [1] [µg/mL] | Minimal inhibitory concentration (MIC) [2] [µg/mL] | Minimal inhibitory concentration (MIC) [3] [µg/mL] | Minimal inhibitory concentration (MIC) [4] [µg/mL] | Minimal inhibitory concentration (MIC) [5] [µg/mL] | Minimal inhibitory concentration (MIC) [6] [µg/mL] | Minimal inhibitory concentration (MIC) (Candida krusei K. 11655) [µg/mL] | Minimal inhibitory concentration (MIC) [7] [µg/mL] | Minimal inhibitory concentration (MIC) [8] [µg/mL] | Minimal inhibitory concentration (MIC) [9] [µg/mL] | Minimal inhibitory concentration (MIC) [10] [µg/mL] | Minimal inhibitory concentration (MIC) [11] [µg/mL] | Minimal inhibitory concentration (MIC) [12] | Minimal inhibitory concentration (MIC) [13] | other results
1 | FC(OCC1COC(Cn2ccnc2)(c2ccc(Cl)cc2Cl)O1)=C(c1cccc(F)c1)C(F)(F)F (mixture of isomers) [Ex. 32] | 6.25 | 12.5 | 1.56 | 6.25 | 0.78 | >100 | 50.0 | >100 | 25.0 | 6.25 | 100 | 12.5 | 100 | 0.78 µg/mL | 0.39 µg/mL | –
2 | FC(OCC1COC(Cn2ccnc2)(c2ccc(Cl)cc2Cl)O1)=C(c1ccc(F)cc1)C(F)(F)F (mixture of isomers) [Ex. 33] | 12.5 | 25.0 | 1.56 | 6.25 | 1.56 | >100 | 100 | 100 | 50.0 | 12.5 | 100 | 25.0 | 100 | 1.56 µg/mL | 0.78 µg/mL | –
3 | FC(OCC1COC(Cn2ccnc2)(c2ccc(Cl)cc2Cl)O1)=C(c1cc(Cl)cc(Cl)c1)C(F)(F)F (mixture of isomers) [Ex. 34] | 6.25 | 6.25 | 1.56 | 6.25 | 1.56 | 12.5 | 3.13 | 25.0 | 12.5 | 0.78 | 12.5 | 1.56 | 6.25 | 0.39 µg/mL | 0.39 µg/mL | –
4 | FC(OCC1COC(Cn2ccnc2)(c2ccc(Cl)cc2Cl)O1)=C(c1cccs1)C(F)(F)F (mixture of isomers) [Ex. 35] | 25.0 | 25.0 | 1.56 | 25.0 | 1.56 | >100 | 100 | >100 | 100 | 6.25 | >100 | 25.0 | 100 | 1.56 µg/mL | 0.78 µg/mL | –
5 | FC(=Cc1ccccc1)OCC1COC(Cn2ccnc2)(c2ccc(F)cc2F)O1 (mixture of isomers) [Ex. 36] | 50.0 | 25.0 | 3.13 | 50.0 | 6.25 | 25.0 | 1.56 | 50.0 | 100 | 0.39 | 25.0 | 1.56 | 12.5 | 0.78 µg/mL | 0.78 µg/mL | –
6 | FC(=Cc1ccc2c(c1)OCO2)OCC1COC(Cn2ccnc2)(c2ccc(F)cc2F)O1 (mixture of isomers) [Ex. 46] | 25.0 | 12.5 | 0.78 | – | 0.78 | 25.0 | 1.56 | 25.0 | 50.0 | 0.20 | 12.5 | 0.39 | 12.5 | ≦0.10 μg/ml | ≦0.10 μg/ml | –
7 | CCc1ccc(C(=C(F)Oc2ccc(OCC3COC(Cn4ccnc4)(c4ccc(Cl)cc4Cl)O3)cc2)C(F)(F)F)cc1 (mixture of isomers) [Ex. 95] | – | – | – | – | – | – | – | – | – | – | – | – | – | – | – | Minimal inhibitory concentration(MIC), C. albicans C1-2 (Candida albicans C1-2): >100 µg/mL; Minimal inhibitory concentration(MIC), T. glabrata B. 16205 [1]: >100 µg/mL; Minimal inhibitory concentration(MIC), Cry. neoformans B. 42419 [2]: 6.25 µg/mL; Minimal inhibitory concentration(MIC), C. albicans A. 10231 [3, 14]: >100 µg/mL; Minimal inhibitory concentration(MIC), Cry. neoformans A. 34144 [4]: 3.13 µg/mL; Minimal inhibitory concentration(MIC), C. parapsitosis A. 7330 [5]: >100 µg/mL; Minimal inhibitory concentration(MIC), A furnigatus B. 19119 [6]: >100 µg/mL; Minimal inhibitory concentration(MIC), C. krusei K. 11655 (Candida krusei K. 11655): >100 µg/mL; Minimal inhibitory concentration(MIC), C. tropicalis A. 13803 [7]: >100 µg/mL; Minimal inhibitory concentration(MIC), T. mentagrophytes B. 32663 [8]: 50.0 µg/mL; Minimal inhibitory concentration(MIC), C. pseudotropicalis K. 11658 [9]: >100 µg/mL; Minimal inhibitory concentration(MIC), T. mentagrophytes A. 9129 [10]: 50.0 µg/mL; Minimal inhibitory concentration(MIC), A. niger A. 16404 [11]: >100 µg/mL; Minimal inhibitory concentration(MIC), C. albicans IFO. 1385 [12]: 6.25 µg/mL
8 | Cc1ccc(C(=C(F)N2CCN(c3ccc(OCC4COC(Cn5ccnc5)(c5ccc(Cl)cc5Cl)O4)cc3)CC2)C(F)(F)F)cc1 (mixture of isomers) [Ex. 126] | – | – | – | – | – | – | – | – | – | – | – | – | – | – | – | Minimal inhibitory concentration(MIC), C. albicans C1-2 (Candida albicans C1-2): >100 µg/mL; Minimal inhibitory concentration(MIC), T. glabrata B. 16205 [1]: >100 µg/mL; Minimal inhibitory concentration(MIC), Cry. neoformans B. 42419 [2]: 0.78 µg/mL; Minimal inhibitory concentration(MIC), Cry. neoformans A. 34144 [4]: 0.78 µg/mL; Minimal inhibitory concentration(MIC), C. parapsitosis A. 7330 [5]: 3.13 µg/mL; Minimal inhibitory concentration(MIC), A furnigatus B. 19119 [6]: >100 µg/mL; Minimal inhibitory concentration(MIC), C. krusei K. 11655 (Candida krusei K. 11655): 3.13 µg/mL; Minimal inhibitory concentration(MIC), C. tropicalis A. 13803 [7]: >100 µg/mL; Minimal inhibitory concentration(MIC), T. mentagrophytes B. 32663 [8]: 6.25 µg/mL; Minimal inhibitory concentration(MIC), C. pseudotropicalis K. 11658 [9]: 1.56 µg/mL; Minimal inhibitory concentration(MIC), T. mentagrophytes A. 9129 [10]: 12.5 µg/mL; Minimal inhibitory concentration(MIC), A. niger A. 16404 [11]: >100 µg/mL; Minimal inhibitory concentration(MIC), C. albicans IFO. 1385 [12]: 1.56 µg/mL; Minimal inhibitory concentration(MIC), Cry. neoformans IFM. 40092 [13, 14]: ≦0.10 μg/ml
